Tested on: Porcine Smooth Muscle Cell
Assay: Effects of compounds on cell proliferation using 3H thymidine incorporation (porcine smooth muscle cell antiproliferation)
Type: cell-based
Settings: Sus scrofa, serum/growth factor stimulated cells, 24-36 h incubation
Description: Effects of Compounds on Cell Proliferation Using ^3H Thymidine Incorporation
Human and porcine smooth muscle cells were tested in early passage (generally passage 3-7) at sub-confluent conditions. Cultures were grown in 16 mm (24 well) multi-well culture dishes in medium 199 supplemented with 10% fetal bovine serum and 2% antibiotic/antimycotic. At sub-confluence, the cells were placed in a defined serum free medium (AIM-V; Gibco) for 24-48 h prior to initiating the experimental protocol.
Compounds were added to each well at 50 fold dilution (20 μL/well) and the plates were incubated for 24-36 h at 37° C. in 5% CO2. Compounds were initially dissolved in 50% ethanol and serially diluted into media. Compounds were routinely evaluated at concentrations from 1 to 100 μM. As a control, grade II porcine intestinal mucosal herapin (sodium salt) was routinely evaluated in all cell preparations at concentrations from 0.1 to 100 μg/mL.
At the completion of the test procedure, plates were placed on ice, washed three times with ice cold phosphate buffered saline (PBS) and incubated in ice cold 10% trichloroacetic acid (TCA) got 30 min to remove acid soluble proteins. Solution was transferred to scintillation vials containing 0.4 N HCl (500 μL/vial to neutralize NaOH) and each well was rinsed two times with water (500 μL) for a total volume of 2 mL/vial.
Data was obtained, in triplicate, for both control and experimental samples. Control (100%) data was obtained from maximally stimulated cells, as the result of growth factor or serum stimulation. Experimental data was obtained from cells maximally stimulated with growth factor or serum and treated with compound. Data are expressed as an IC50 in Table I below.

SMILES | IC50 [µM]
CCCCOc1ccc(C(=O)N[C@@H]2O[C@H](COC(C)=O)[C@@H](O[C@H]3O[C@H](COC(C)=O)[C@@H](OC(C)=O)[C@H](OC(C)=O)[C@H]3OC(C)=O)[C@H](OC(C)=O)[C@H]2OC(C)=O)cc1Cl [Example 18, 4-butoxy-3-chloro-N-[2,3,6-tri-O-acetyl-4-O-(2,3,4,6-tetra-O-acetyl-α-D-glucopyranosyl)-β-D-glucopyranosyl]benzamide] | 3.5

Same assay, conditions: at 50 μM, control (100%) = maximally stimulated cells

SMILES | Porcine Smooth Muscle Cell Antiproliferation, % at 50 μM [% at 50]
CC(=O)OC1C(NC(=O)c2ccc(OCCCC#N)c(Cl)c2)OC(COC(=O)c2ccccc2)C(OC2OC3COC(c4ccccc4)OC3C(OC(C)=O)C2OC(C)=O)C1OC(C)=O [Example 17, N-(2,2′,3,3′-tetra-O-Acetyl-6-O-benzoyl-4′,6′-O-benzylidene-β-D-maltosyl)-3-chloro-4-(4-nitrilo-butoxy)-benzamide] | 33
O=C(NC1OC(CO)C(OC2OC3COC(c4ccccc4)OC3C(O)C2O)C(O)C1O)c1ccc(Cl)c([N+](=O)[O-])c1 [Example 5, (R)-4-chloro-3-nitro-N-[4-O-[4,6-O-(phenylmethylene)-α-D-glucopyranosyl]-β-D-glucopyranosyl]-benzamide] | 37
CC(=O)OC1C(NC(=O)c2ccc(OCCCC#N)c([N+](=O)[O-])c2)OC(COC(=O)c2ccccc2)C(OC2OC3COC(c4ccccc4)OC3C(OC(C)=O)C2OC(C)=O)C1OC(C)=O [Example 31, N-(2,2′,3,3′-tetra-O-Acetyl-6-O-benzoyl-4′,6′-O-benzylidene-β-D-maltosyl)-4-(4-nitrilo-butoxy)-3-nitro-benzamide] | 15
N#CCCCOc1ccc(C(=O)NC2OC(CO)C(OC3OC4COC(c5ccccc5)OC4C(O)C3O)C(O)C2O)cc1Cl [Example 15, N-(4′,6′-O-Benzylidene-β-D-maltosyl)-3-chloro-4-(4-nitrilo-butoxy)-benzamide] | 30

Same assay, conditions: serum/growth factor stimulated cells, 24-36 h incubation

SMILES | IC50 [µM]
CC(=O)OC[C@H]1O[C@@H](NC(=O)c2ccc(Cl)cc2)[C@H](OC(C)=O)[C@@H](OC(C)=O)[C@@H]1O[C@H]1O[C@H](COC(C)=O)[C@@H](OC(C)=O)[C@H](OC(C)=O)[C@H]1OC(C)=O [Example 10, N-(Hepta-O-acetyl-β-D-maltosyl)-4-chloro-benzamide] | 36.6
CC(=O)OC[C@H]1O[C@@H](NC(=O)c2ccc(OCCCC#N)c(Cl)c2)[C@H](OC(C)=O)[C@@H](OC(C)=O)[C@@H]1O[C@H]1O[C@H](COC(C)=O)[C@@H](OC(C)=O)[C@H](OC(C)=O)[C@H]1OC(C)=O [Example 13] | 32.8
CCCCOc1c(Cl)cc(C(=O)NC2OC(CO)C(OC3OC4COC(c5ccccc5)OC4C(O)C3O)C(O)C2O)cc1Cl [Example 43, N-(4′,6′-O-Benzylidene-β-D-maltosyl)-4-butoxy-3,5-dichloro-benzamide] | 44.5
CCCCOc1ccc(C(=O)N[C@@H]2O[C@H](COC(=O)c3ccccc3)[C@@H](O[C@H]3O[C@@H]4COC(c5ccccc5)O[C@H]4[C@H](OC(C)=O)[C@H]3OC(C)=O)[C@H](OC(C)=O)[C@H]2OC(C)=O)cc1Cl (stereo partly drawn) [Example 21, 4-Butoxy-3-chloro-N-[(2,3,2′,3′-tetra-O-acetyl-6-O-benzoyl-4′,6′-O-benzylidene)-β-D-maltosyl]-benzamide] | 9.8
COc1ccc(C(=O)N[C@@H]2O[C@H](COC(C)=O)[C@@H](O[C@H]3O[C@H](COC(C)=O)[C@@H](OC(C)=O)[C@H](OC(C)=O)[C@H]3OC(C)=O)[C@H](OC(C)=O)[C@H]2OC(C)=O)cc1Cl [Example 44, N-(Hepta-O-acetyl-β-D-maltosyl)-3-chloro-4-methoxy-benzamide] | 5.4
CC(=O)Nc1cc(CC(=O)N[C@@H]2O[C@H](COC(=O)c3ccccc3)[C@@H](O[C@H]3O[C@@H]4COC(c5ccccc5)O[C@H]4[C@H](O)[C@H]3O)[C@H](O)[C@H]2O)ccc1Cl (stereo partly drawn) [Example 51] | 0.916
COc1ccc(CC(=O)NC2OC(COC(=O)c3ccccc3)C(OC3OC4COC(c5ccccc5)OC4C(O)C3O)C(O)C2O)cc1OC [Example 47, N-(6-O-Benzoyl-4′,6′-O-benzylidene-β-D-maltosyl)-2-(3,4-dimethoxy-phenyl)-acetamide] | 8

From patent US6339064B1, “Benzylglycosylamides as inhibitors of smooth muscle cell proliferation” (American Home Products Corporation, priority 1998, dated 2002)
